Measurements taken from patent US20100129434A1, “COMPOSITIONS AND METHODS FOR THE TREATMENT OF MUCORMYCOSIS AND OTHER FUNGAL DISEASES” (priority 2006, published 2010).

Test system: R. oryzae
Experiment: Survival of diabetic ketoacidotic (DKA) mice infected with R. oryzae
Type: in vivo, BALB/c male mice
Conditions: DKA mice; for survival compared to controls: 2.2×10^4 spores R. oryzae 99-892, 1, 3, or 10 mg/kg bid for seven days; for 28 day survival: R. oryzae 99-892
Method: Briefly, for in vivo infection, BALB/c male mice (>20 g) were rendered diabetic with a single i.p. injection of 210 mg/kg streptozotocin in 0.2 ml citrate buffer 10 days prior to fungal challenge. […] Mice were infected through the tail vein with the appropriate inocula of R. oryzae. To confirm the inocula, dilutions were streaked on PDA plates and colonies were counted following a 24 h incubation period at room temperature. The primary efficacy endpoint was time to death. As a secondary endpoint, brain fungal burden (the primary target organ) was determined by homogenization by rolling a pipette on organs placed in Whirl-Pak bags (Nasco, Fort Atkinson, Wis.) containing 2 ml saline. The homogenate was serially diluted in 0.85% saline and then quantitatively cultured on PDA. Values were expressed as log 10 cfu g^−1 tissue. All procedures involving mice were approved by the institutional animal use and care committee, following the National Institutes of Health guidelines for animal housing and care.
Deferiprone (Apotex Research Inc.) was dissolved in iron-free water and administered intraperitoneally at 50, 100, or 200 mg/kg qd or qod (every other day). Treatment was begun 24 h post infection and continued for a total of 4 doses. Control groups were treated with the diluent, 5% dextrose water.
Deferiprone is known to form molecular complexes with ferric iron (^3+Fe) in a 1:3 ratio of iron to deferiprone. Based on the known molecular weights of ferric chloride (FeCl3, molecular weight 162.22 g/mol) and deferiprone (molecular weight 139 g/mol), a 60 mg/kg dose of FeCl3 was calculated to result in a significant excess of ^3+Fe vs. a 100 mg/kg dose of deferiprone given to an 18 g mouse: ^3+Fe moles=(0.060 g/kg*0.018 kg [mouse weight]/162.22 g/mol)=6.5×10^−6 mol vs. deferiprone moles=(0.1 g/kg*0.018 kg [mouse weight]/139 g/mol)=1.3×10^−5 mol Ratio=1:2 moles of ^3+Fe to deferiprone, which is more than that required to achieve a saturating 1:3 ratio.
Statistical analysis was performed using the nonparametric log rank test was used to determine differences in survival times of the mice. Differences in tissue fungal burdens in the infected organs were compared by the nonparametric Steel test for multiple comparisons. P values of <0.05 were considered significant.
Deferasirox (Novartis Pharmaceuticals, Basel, Switzerland) was suspended in 0.5% hydroxypropylcellulose (Klucel) and administered by oral gavage at 1, 3, or 10 mg/kg […] (qd) or every other day (qod). Treatment was begun 24 h post infection and continued for a total of 5 or 7 doses. Control groups were treated with the diluent, 5% dextrose water and 0.5% Klucel. In some experiments, a saturating dose of free iron was administered with deferasirox. Deferasirox is known to form molecular complexes with ferric iron (^3+Fe) in a 1:2 ratio of iron to deferasirox. Based on the known molecular weights of ferric chloride (FeCl3, molecular weight 162.22 g/mol) and deferasirox (molecular weight 373.4 g/mol), a 2.8 mg/kg dose of FeCl3 was calculated to result in a significant excess of ^3+Fe vs. a 10 mg/kg dose of deferasirox given to an 18 g mouse: ^3+Fe moles=(0.0028 g/kg*0.018 kg [mouse weight]/162.22 g/mol)=3×10^−7 mol vs. deferasirox moles=(0.01 g/kg*0.018 kg [mouse weight]/373.4 g/mol)=5×10^−7 mol Ratio=1:1.7 moles of ^3+Fe to deferasirox, which is more than that required to achieve a saturating 1:2 ratio.
The nonparametric log rank test was used to determine differences in survival times of the mice. Differences in tissue fungal burdens, splenic lymphocyte frequencies, and whole organ cytokines in the infected organs were compared by the Mann Whitney U test. P values of <0.05 were considered significant.

Q: Which results are given for `O=C(O)c1ccc(-n2nc(-c3ccccc3O)nc2-c2ccccc2O)cc1` [Deferasirox, 4-[3,5-Bis(2-hydroxyphenyl)-1H-1,2,4-triazol-1-yl]-benzoic acid]?
A: time to death compared to placebo (1.3×10^3 spores R. oryzae 99-880, 10 mg/kg bid seven days): significantly improved time to death; survival compared to controls: significantly improved survival; survival compared to controls (listed as Exjade): improves survival; survival (R. oryzae 99-880, Deferasirox 10 mg/kg po twice daily, LAmB 15 mg/kg iv once daily 4 doses, or both, placebo 0%): 25%; 28 day survival (1 mg/kg bid oral gavage 7 days, placebo 0%, p=0.03): 29%; 28 day survival (3 mg/kg bid oral gavage 7 days, placebo 0%, p=0.049): 40%; 28 day survival (10 mg/kg bid oral gavage 7 days, placebo 0%, p=0.01): 57%; protective effect on administration of free iron (deferasirox plus saturating ferric chloride): reversed
